Data reported in US6489342B2, “Aryloxy piperidinyl indoles for treating depression” (Wyeth, priority 2000, dated 2002).
Counter-ions that a name gives are not always drawn.

Legend:
5-HT1A = target: T1, 5-HT1A (Homo sapiens, UniProt P08908); test: 5-HT1A receptor binding, [3H]DPAT; settings: radioligand [3H]DPAT
T1 sequence (P08908 1-422): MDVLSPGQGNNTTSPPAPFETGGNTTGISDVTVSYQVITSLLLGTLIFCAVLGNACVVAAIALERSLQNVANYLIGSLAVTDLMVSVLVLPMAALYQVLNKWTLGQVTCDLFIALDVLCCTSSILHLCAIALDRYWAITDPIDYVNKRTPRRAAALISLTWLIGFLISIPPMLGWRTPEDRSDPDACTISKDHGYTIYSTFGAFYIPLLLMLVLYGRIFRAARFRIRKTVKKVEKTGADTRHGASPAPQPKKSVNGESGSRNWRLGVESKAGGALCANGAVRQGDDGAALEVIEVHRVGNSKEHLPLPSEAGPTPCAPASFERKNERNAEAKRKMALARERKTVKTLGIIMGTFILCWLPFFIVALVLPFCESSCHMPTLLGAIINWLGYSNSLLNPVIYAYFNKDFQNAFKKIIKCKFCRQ

Row | SMILES | melting point | also measured
1 | Fc1ccc2[nH]cc(CC3CCN(CCOc4cccc5[nH]ccc45)CC3)c2c1 (as salt: hydrochloride) (hydrate or solvate) [Example 1, 5-Fluoro-3-{1-[2-(1H-indol-4-yloxy)ethyl]-piperidin-4-ylmethyl}-1H-indole] | 215 °C (dec.) | –
2 | CC(CN1CCC(Cc2c[nH]c3ccc(F)cc23)CC1)Oc1cccc2[nH]ccc12 (stereo not shown) (as salt: hydrochloride) [Example 2, 5-Fluoro-3-[[1-[2-(1H-indol-4-yloxy)propyl]-4-piperidinyl]methyl]-1H-indole] | 130 to 132 °C | –
3 | Fc1ccc2[nH]cc(CC3CCN(CCOc4cccc5[nH]ccc45)CC3)c2c1 [Example 1, 5-Fluoro-3-{1-[2-(1H-indol-4-yloxy)ethyl]-piperidin-4-ylmethyl}-1H-indole] | – | Ki (5-HT1A): 47 nM
4 | CC(CN1CCC(Cc2c[nH]c3ccc(F)cc23)CC1)Oc1cccc2[nH]ccc12 (stereo not shown) [Example 2, 5-Fluoro-3-[[1-[2-(1H-indol-4-yloxy)propyl]-4-piperidinyl]methyl]-1H-indole] | – | 5-HT1A [3H]DPAT, percent at 100 nM (5-HT1A; @ 100 nM): 14% @
